One data set concerns OLAC Wister male rats. Briefly: Carrageenin test (rat paw oedema). It counts as in vivo. To be noted: for Paw volume ± s.e. / % Inhi-bition: paw volume 3 hours after carrageenin; for Paw volume ± s.e.: control 85.8 ± 9.4. As for the experimental part:
1. Activity in the Carrageenin Test
(§1) Groups of 8 OLAC Wister male rats (140 - 170 g) received the compound of Example 1 orally 1 hour before 0.1 ml of 0.5% λ carrageenin injected into the right hind paw. Paw volumes were measured by mercury displacement 3 hours after carrageenin.

A further data set in a line: Gastric irritancy test. It counts as in vivo, rats. To be noted: rat, in vivo, po. The method, then: (§2) 2. Gastric Irritancy Test
(§3) Groups of OLAC Wistar female rats (130 - 160 g) were fasted overnight (18 hours) before receiving orally the compound of Example 1. 4 Hours later the stomachs were removed and inspected for the presence of erosion of the gastric mucosa.

A further data set has as its system OLAC Wistar female rats. Briefly: Gastric irritancy test. It counts as in vivo. To be noted: fasted rats, stomachs inspected 4 hours later. The method, then: as §2, §3
The nature of data set [1]: Therapeutic ratio from the carrageenin test and the gastric irritancy test. It counts as in vivo, rats. To be noted: from the two tests (gastric irritancy ED50 / carrageenin ED25). The method, then:
as §1, §3
From these two tests the therapeutic ratio for the compound of formula (EI) was 41.0.

The source of these data is patent EP0091181A2, “Aroyl pyrrolizine compounds, process for their preparation and pharmaceutical compositions containing them” (BEECHAM GROUP PLC, priority 1982, dated 1983).

Molecules are shown by their SMILES.

For the molecule `CC(=O)CC1CCn2c(C(=O)c3ccccc3)ccc21` (centres unmarked) [Example 1, 1-(5-Benzoyl-2-3-dihydro-1H-pyrrolazin-1-yl)-propan-2-one], the ED25 in the data set with OLAC Wister male rats (Rattus norvegicus, oral, carrageenin paw volume, rats) amounted to 0.75 mg/kg. Moreover, the “Paw volume ± s.e.” value is on record as 92.6 ± 4.6 with OLAC Wister male rats (oral dose 0.1 mg/kg 1 hour before carrageenin) and 73.4 ± 7.8 in the data set on OLAC Wister male rats (oral dose 0.5 mg/kg 1 hour before carrageenin). The “% Inhi-bition” value with OLAC Wister male rats (oral dose 0.1 mg/kg) is -8.0%; with OLAC Wister male rats (oral dose 0.5 mg/kg), 14.4%; in the data set with OLAC Wister male rats (oral dose 2.5 mg/kg), 47.4%. For the same molecule, in the data set “Gastric irritancy test”, the TD50 at 4 h turned out to be 30.8 mg/kg. Moreover, the “Proportion of rats with gas-tric erosions” value in the data set on OLAC Wistar female rats (oral dose 3.7 mg/kg) is listed as 0/8; with OLAC Wistar female rats (oral dose 11.2 mg/kg) it was 1/8; in the data set on OLAC Wistar female rats (oral dose 33.6 mg/kg) it was 4/8. In data set [1], the therapeutic ratio is 41.0.
